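Dose response: 5 concentrations. Exposure: 48 h. Format: 96-well plates. Endpoint: linear interpolation; highest concentration if not reached. At the GI50, growth is halved.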 The source made the active and inactive calls. Cut-off read from the data, not from the text of the source: active = GI50 up to about 1.1 µM and inactive = higher.
What was measured:
Assay in all cases: NCI anticancer screen, dose series, 48 h
[1] = tested on: DMS-273
[2] = tested on: A549
[3] = tested on: SF-295
[4] = tested on: HT-29
[5] = tested on: LOX IMVI
[6] = tested on: DLD-1
[7] = tested on: SNB-75
[8] = tested on: SK-MEL-5
[9] = tested on: IGROV-1
[10] = tested on: Malme-3M
[11] = tested on: HCT-15
[12] = tested on: RXF 631
[13] = tested on: ACHN
[14] = tested on: COLO 205
[15] = tested on: XF498
[16] = tested on: RPMI-8226
[17] = tested on: TK-10
[18] = tested on: OVCAR-5
[19] = tested on: HCC 2998
[20] = tested on: HL-60
[21] = tested on: NCI-H522
[22] = tested on: HOP-62
[23] = tested on: UACC-257
[24] = tested on: OVCAR-8
[25] = tested on: UO-31
[26] = tested on: CAKI-1
[27] = tested on: 786-0
[28] = tested on: M19-MEL
[29] = tested on: M14
[30] = tested on: SK-MEL-28
[31] = tested on: EKVX
[32] = tested on: UACC-62
[33] = tested on: SK-MEL-2
[34] = tested on: SW-620
[35] = tested on: NCI-H23
[36] = tested on: SF-268
[37] = tested on: NCI-H460
[38] = tested on: MOLT-4
[39] = tested on: U-251
[40] = tested on: OVCAR-4
[41] = tested on: HOP-18
[42] = tested on: LXFL 529
[43] = tested on: KM12
[44] = tested on: A498
[45] = tested on: HOP-92
[46] = tested on: SNB-78
[47] = tested on: SK-OV-3
[48] = tested on: DMS-114
[49] = tested on: SR
[50] = tested on: CCRF-CEM
[51] = tested on: NCI-H226
[52] = tested on: HCT-116
[53] = tested on: RXF 393
[54] = tested on: KM-20L2
[55] = tested on: SN12C
[56] = tested on: K562
[57] = tested on: SNB-19
[58] = tested on: SF-539

`Cc1cc(Cl)ccc1NC(=O)C(=O)Cc1occc(=O)c1O` was tested, and the GI50 [1] was > 100 µM (inactive), the GI50 [2] was > 100 µM (inactive) and the GI50 [3] was > 100 µM (inactive). The GI50 [4] was > 100 µM (inactive), the GI50 [5] was > 100 µM (inactive) and the GI50 [6] was > 100 µM (inactive). The GI50 [7] was > 100 µM (inactive), the GI50 [8] was > 100 µM (inactive) and the GI50 [9] was > 100 µM (inactive). The GI50 [10] was > 100 µM (inactive), the GI50 [11] was > 100 µM and the GI50 [12] was > 100 µM (inactive). The GI50 [13] was > 100 µM (inactive), the GI50 [14] was > 100 µM (inactive) and the GI50 [15] was > 100 µM (inactive). The GI50 [16] was > 100 µM (inactive), the GI50 [17] was > 100 µM (inactive) and the GI50 [18] was > 100 µM (inactive). For the same molecule, the GI50 [19] was > 100 µM (inactive), the GI50 [20] was > 100 µM (inactive) and the GI50 [21] was > 100 µM (inactive). For the same molecule, the GI50 [22] was > 100 µM (inactive), the GI50 [23] was > 100 µM (inactive) and the GI50 [24] was > 100 µM (inactive). For the same molecule, the GI50 [25] was > 100 µM (inactive), the GI50 [26] was > 100 µM (inactive) and the GI50 [27] was > 100 µM (inactive). The GI50 [28] was > 100 µM (inactive), the GI50 [29] was > 100 µM (inactive) and the GI50 [30] was > 100 µM (inactive). For the same molecule, the GI50 [31] was > 100 µM (inactive), the GI50 [32] was > 100 µM (inactive) and the GI50 [33] was > 100 µM (inactive). The GI50 [34] was > 100 µM (inactive), the GI50 [35] was > 100 µM (inactive) and the GI50 [36] was > 100 µM (inactive). The GI50 [37] was > 100 µM (inactive), the GI50 [38] was > 100 µM (inactive) and the GI50 [39] was > 100 µM (inactive). The GI50 [40] was > 100 µM (inactive), the GI50 [41] was > 100 µM (inactive) and the GI50 [42] was > 100 µM (inactive). The GI50 [43] was > 100 µM (inactive), the GI50 [44] was > 100 µM (inactive) and the GI50 [45] was > 100 µM (inactive). For the same molecule, the GI50 [46] was > 100 µM (inactive), the GI50 [47] was > 100 µM (inactive) and the GI50 [48] was > 100 µM (inactive). For the same molecule, the GI50 [49] was > 100 µM (inactive), the GI50 [50] was > 100 µM (inactive) and the GI50 [51] was > 100 µM (inactive). The GI50 [52] was > 100 µM (inactive), the GI50 [53] was > 100 µM (inactive) and the GI50 [54] was > 100 µM (inactive). For the same molecule, the GI50 [55] was > 100 µM (inactive), the GI50 [56] was > 100 µM (inactive) and the GI50 [57] was > 100 µM (inactive). For the same molecule, the GI50 [58] was > 100 µM (inactive).

— ChEMBL document CHEMBL1201862, “PubChem BioAssay data set” (2004)
